Laboratory results reported in patent US5656289A, “Pharmaceutical formulations that have a biologically active hydrophilic phase and a chylomicra-containing hydrophobic phase” (priority 1988, dated 1997).
“And” between values parts separate entries of the source, which are not always exact repeats. Equal entries are not always repeated.

Columns and labels:
[1] = in vivo; cited from earlier work
[2] = Biological Example B: serum insulin after oral Example 1 emulsion or s.c. Regular Insulin; format: in vivo, human
Excerpt: The results are as follows:

diabetics [3] = assay: Biological Example B: blood sugar in diabetics and one healthy volunteer after oral Example 1 liquid microemulsion, Regular Insulin or Diabenase; details: for response of case numbers 1 and 8 (in words): 500 mg tablets per os / 20 units s.c.
Procedure: An appropriate amount of the microemulsion is given in a liquid form per os together with 10 ml of MCT (MCT is a trade mark for a medium chained triglyceride solution by Mead-Johnson & Co. Evansville, Ind., U.S.A.). […] Each ml of the insulin-containing formulation contains approximately 5 units of bovine insulin.
Twelve diabetics (9 IDDM and 3 NIDDM) and one healthy volunteer participate in the study. […] Each subject is given one unit of insulin per kg body weight in the form described above per os.

diabetics [4] = assay: Biological Example A: blood sugar in diabetics and one healthy volunteer after oral Example 5 capsules or s.c. Regular Insulin; format: in vivo, human
[5] = Biological Example A: serum insulin after oral Example 5 capsules or s.c. Regular Insulin (radioimmunoassay); format: in vivo, human
Procedure: A total of 17 diabetics (8 Insulin-Dependent and 9 Non-Insulin-Dependent diabetics) and one healthy volunteer are fasted overnight. […] Each capsule contains approximately 10 U of bovine insulin and each subject is given, orally, a dose equivalent to approximately one unit per kg body weight, with about 250 ml of water. Blood sugar levels are measured on blood samples obtained by pricking the finger-tip using a HAEMOGLUKOTEST set 20-800R and a REFLOLUX apparatus (Boehringer Mannheim GmbH, West Germany). In a few cases, serum insulin levels are measured using a radioimmunoassay method. For the serum insulin analyses, the serum samples are decanted into TRASYLOL-containing test tubes and stored at -20° to -35° C. until analysed. (TRASYLOL is a trade mark of Bayer for aprotinin proteinase inhibitor.)

[6] = 15 Units s.c., case 12 IDDM, 0 h (baseline)
[7] = 15 Units s.c., case 12 IDDM, 1 h
[8] = 15 Units s.c., case 12 IDDM, 3 h
[9] = 15 Units s.c., case 12 IDDM, 4 h
[10] = 20 Units s.c., case 11 IDDM, 0.5 h
[11] = 20 Units s.c., case 11 IDDM, 3 h
[12] = 20 Units s.c., case 11 IDDM, 4 h
[13] = 15 Units s.c., case 18 IDDM, 0 h (baseline)
[14] = 15 Units s.c., case 18 IDDM, 1.0 h
[15] = 15 Units s.c., case 18 IDDM, 2.0 h

## Sorbitan tristearate
[1]
  LD50: > 16000 mg/kg

## Sorbitan monostearate
[1]
  LD50: 31000 mg/kg

## Sorbitan monolaurate
[1]
  LD50: 41000 mg/kg

## Sorbitan monopalmitate
[1]
  LD50: > 16000 mg/kg

## Regular Insulin: Regular Insulin (Green Cross Co. of Seoul, Korea), subcutaneously injected
[2]; [6]
  Serum Insulin: 30 micro-Units/ml
[2]; [7]
  Serum Insulin: 47 micro-Units/ml
[2]; [8]
  Serum Insulin: 112 micro-Units/ml
[2]; [9]
  Serum Insulin: 115 micro-Units/ml
[2]; [10]
  Serum Insulin: 159 micro-Units/ml
[2]; [11]
  Serum Insulin: 78 micro-Units/ml
[2]; [12]
  Serum Insulin: 45 micro-Units/ml
Diabetics [3]
  response of case numbers 1 and 8 (in words): poor responders
Diabetics [3]; [6]
  Blood Sugar (Table 6): 188 mg/dL
Diabetics [3]; [7]
  Blood Sugar (Table 6): 181 mg/dL
Diabetics [3]; [8]
  Blood Sugar (Table 6): 160 mg/dL
Diabetics [3]; [9]
  Blood Sugar (Table 6): 139 mg/dL
Diabetics [3]; 15 Units, case 1 NIDDM, 0 h (baseline)
  Blood Sugar: 201 mg/dL
Diabetics [3]; 15 Units, case 1 NIDDM, 1 h
  Blood Sugar: 198 mg/dL
Diabetics [3]; 15 Units, case 1 NIDDM, 4 h
  Blood Sugar: 185 mg/dL
Diabetics [3]; 20 Units s.c., case 11 IDDM, 0 h (baseline)
  Blood Sugar (Table 6): 308 mg/dL
Diabetics [3]; [10]
  Blood Sugar (Table 6): 181 mg/dL
Diabetics [3]; [11]
  Blood Sugar (Table 6): 87 mg/dL
Diabetics [3]; [12]
  Blood Sugar (Table 6): 115 mg/dL
Diabetics [3]; 20 Units, case 8 NIDDM, 3 h
  Blood Sugar: 194 mg/dL
Diabetics [3]; 20 Units, case 8 NIDDM, 4 h
  Blood Sugar: 176 mg/dL
Diabetics [3]; 20 Units, cases 6 and 8, 0 h (baseline)
  Blood Sugar: 151 mg/dL and 218 mg/dL
Diabetics [3]; 20 Units, cases 6 and 8, 2 h
  Blood Sugar: 124 mg/dL and 200 mg/dL
Diabetics [4]; 5 to 20 units s.c., case nos. 2, 5, 6, 10, 14
  response to subcutaneously injected insulin (in words): respond poorly
Diabetics [4]; 5 units s.c., case 6 NIDDM, 0 h (baseline)
  Blood Sugar: 259 mg/dL
Diabetics [4]; 5 units s.c., case 6 NIDDM, 2 h
  Blood Sugar: 376 mg/dL
Diabetics [4]; 5 units s.c., case 6 NIDDM, 3 h
  Blood Sugar: 298 mg/dL
Diabetics [4]; [13]
  Blood Sugar (Table 3): 171 mg/dL
Diabetics [4]; [14]
  Blood Sugar (Table 3): 152 mg/dL
Diabetics [4]; [15]
  Blood Sugar (Table 3): 122 mg/dL
Diabetics [4]; 15 Units s.c., case 18 IDDM, 3.0 h
  Blood Sugar (Table 3): 207 mg/dL
Diabetics [4]; 15 Units s.c., case 18 IDDM, […]
  Blood Sugar (Table 3): 131 mg/dL
Diabetics [4]; 15 units s.c., case 5 IDDM, 0 h (baseline)
  Blood Sugar: 171 mg/dL
Diabetics [4]; 15 units s.c., case 5 IDDM, 1 h
  Blood Sugar: 196 mg/dL
Diabetics [4]; 15 units s.c., case 5 IDDM, 2 h
  Blood Sugar: 161 mg/dL
Diabetics [4]; 15 units s.c., case 5 IDDM, 3 h
  Blood Sugar: 170 mg/dL
Diabetics [4]; 20 Units s.c., case 10 NIDDM, 0 h (baseline)
  Blood Sugar (Table 3): 157 mg/dL
Diabetics [4]; 20 Units s.c., case 10 NIDDM, 0.5 h
  Blood Sugar (Table 3): 102 mg/dL
Diabetics [4]; 20 Units s.c., case 10 NIDDM, 3.0 h
  Blood Sugar (Table 3): 106 mg/dL
Diabetics [4]; 20 Units s.c., case 10 NIDDM, […]
  Blood Sugar (Table 3): 77 mg/dL
Diabetics [4]; 20 units s.c., poor responders, 0 h (baseline)
  Blood Sugar: 216 mg/dL and 330 mg/dL and 312 mg/dL
Diabetics [4]; 20 units s.c., poor responders, 1 h
  Blood Sugar: 196 mg/dL and 162 mg/dL
Diabetics [4]; 20 units s.c., poor responders, 2 h
  Blood Sugar: 186 mg/dL and 180 mg/dL
Diabetics [4]; 20 units s.c., poor responders, 3 h
  Blood Sugar: 180 mg/dL
[5]; [13]
  Serum Insulin: 10 micro-U/ml
[5]; [14]
  Serum Insulin: 57 micro-U/ml
[5]; [15]
  Serum Insulin: 184 micro-U/ml
[5]; 15 Units s.c., case 18 IDDM, 4.0 h
  Serum Insulin: 64 micro-U/ml
[5]; 20 Units s.c., case 10 NIDDM, 1.0 h
  Serum Insulin: 19 micro-U/ml
[5]; 20 Units s.c., case 10 NIDDM, 2.0 h
  Serum Insulin: 11 micro-U/ml

## Sorbitan monooleate
[1]
  LD50: > 40000 mg/kg

## Sorbitan trioleate
[1]
  LD50: > 40000 mg/kg

## CCCNC(=O)NS(=O)(=O)c1ccc(Cl)cc1 [Diabenase]
Diabetics [3]; 500 mg per os, case 1 NIDDM, 0 h (baseline)
  Blood Sugar: 186 mg/dL
Diabetics [3]; 500 mg per os, case 8 NIDDM, 1 h
  Blood Sugar: 222 mg/dL
Diabetics [3]; 500 mg per os, case 8 NIDDM, 2 h
  Blood Sugar: 205 mg/dL
Diabetics [3]; 500 mg per os, cases 1 and 8 NIDDM, 3 h
  Blood Sugar: 164 mg/dL and 174 mg/dL
Diabetics [3]
  response of case numbers 1 and 8 (in words): poor responders
